# Laboratory results reported in PubChem BioAssay AID1996.
# Conditions: buffer; pH 7.4; 200.0 µM
row,solubility kinetic,SMILES
1,> 50.8 µg/mL,CCOc1ccc(NC(=O)CN(C)S(=O)(=O)c2cnc[nH]2)cc1
2,26.9 µg/mL,Cc1ccnc(NS(=O)(=O)c2ccc(Cl)nc2)c1
3,1.1 µg/mL,Cc1ccccc1NC(=S)NC(=O)COc1ccccc1C
4,8.2 µg/mL,Cc1cccc(N=C2NC(=O)/C(=C/c3cccn3C)S2)c1C
5,48.7 µg/mL,Cc1onc(-c2ccccc2)c1C(=O)N1CCCN2C(=O)c3ccccc3C21 (configuration not stated)
6,48 µg/mL,CCN1CCN(c2nc(NCCO)c3ccccc3n2)CC1.Cl
7,1.7 µg/mL,COc1ccc(C(=O)NCCNc2ccc([N+](=O)[O-])cc2)cc1OC
8,41.2 µg/mL,O=[N+]([O-])c1cccc(S(=O)(=O)NCc2ccccn2)c1
9,0.4 µg/mL,O=S(=O)(c1ccccc1)N1CCN(c2ccccc2)CC1
10,22.3 µg/mL,CC1(C)Cc2nc(-c3ccccc3)nc(SCC(=O)N3CCCC3)c2CO1
11,46.9 µg/mL,O=C(Nc1cccc(S(=O)(=O)N2CCCC2)c1)c1ccncc1
12,< 0.3 µg/mL,Cn1c(=O)c(C(=O)NCc2ccccc2)c(O)c2ccccc21
13,38.5 µg/mL,Cc1noc(C)c1S(=O)(=O)N(C)Cc1ccccc1
14,> 35.3 µg/mL,Cc1ccccc1C(=O)NC1CCSC1=O (configuration not stated)
15,44.1 µg/mL,CCCN(CC(=O)Nc1cc(C)on1)CC(=O)Nc1ccc(F)c(F)c1F
16,> 47.9 µg/mL,Cc1cc(C)n2nc(SCC(=O)NC3CCCCC3)nc2n1
17,> 39.8 µg/mL,CC1=C([N+](=O)[O-])C(c2ccc(O)c(O)c2)NC(=O)N1 (configuration not stated)
18,52.1 µg/mL,O=C(O)C1CCCN(S(=O)(=O)c2ccc(Br)s2)C1 (configuration not stated)
19,5.1 µg/mL,Cc1ccc(CNC(=O)CCn2c(=O)oc3ccccc32)cc1
20,> 50.9 µg/mL,Cc1cc(C)c(S(=O)(=O)N2CCN(C(=O)N(C)C)CC2)c(C)c1
21,> 35 µg/mL,O=C(Nc1ccncc1Cl)c1ccncc1
22,> 51.5 µg/mL,COC(=O)[C@H](CC(C)C)NC(=O)Nc1ccc(S(N)(=O)=O)cc1
23,9.5 µg/mL,CCOc1ccc(C(=O)COC(=O)CNC(=O)C2CCCCC2)cc1
24,> 51.5 µg/mL,CC(=O)Nc1ccc(NC(=O)CCSCCc2ccccn2)cc1

row,solubility kinetic,SMILES
1,> 31.5 µg/mL,CNC(=S)Nc1cccc(C(=O)O)c1
2,38.1 µg/mL,Cc1ccc2cccc(OCCCOc3ccccc3CO)c2n1
3,> 46.9 µg/mL,Cc1ccccc1CC(=O)N1CCN(C(=O)c2ccco2)CC1
4,> 38.9 µg/mL,COc1cccc(C(=O)NCCCn2ccnc2)c1
5,> 46.6 µg/mL,OC(CN1CCOCC1)Cn1c2ccccc2c2ccccc21 (configuration not stated)
6,> 49.3 µg/mL,CCN(CC(=O)NC1CCCC1)S(=O)(=O)c1ccc(F)cc1
7,> 48.1 µg/mL,CCOc1ncccc1C(=O)OC(C)C(=O)NC1CCCCC1 (configuration not stated)
8,4 µg/mL,Clc1c2c(nc3ccccc13)CCC2
9,> 45.1 µg/mL,Cc1c(C)n(CCO)c2ncnc(Nc3ccc(F)cc3)c12
10,12.4 µg/mL,Cc1ccc(NC(=O)c2ccc(Cl)nc2)cc1S(=O)(=O)N1CCOCC1
11,2.1 µg/mL,COC(=O)c1sc(S(=O)(=O)N2CCN(c3ccccc3F)CC2)c(C(=O)OC)c1C
12,34 µg/mL,COc1ccccc1NC(=S)NCc1ccc(F)cc1
13,> 31.4 µg/mL,O=C(c1ccc(F)cc1)N1CCOCC1
14,38.3 µg/mL,CCC(C)c1ccccc1NC(=O)CN(CC)CC(=O)Nc1ccc2c(c1)OCCO2 (configuration not stated)
15,> 49.4 µg/mL,COc1ccc(NC(=S)N2CCN(S(C)(=O)=O)CC2)cc1
16,0.9 µg/mL,CCOCc1c(C(=O)NC2CCCCCC2)oc2ccccc12
17,> 47.4 µg/mL,O=C(Cn1cccc(C(F)(F)F)c1=O)c1ccc(Cl)cc1
18,5.1 µg/mL,CC(=O)c1cccc(NC(=O)/C=C/c2ccc(S(=O)(=O)N3CCOCC3)cc2)c1
19,> 39.1 µg/mL,CC(=O)NC(CC(=O)N1CCCC1)c1ccccc1 (configuration not stated)
20,1.5 µg/mL,Cc1c(C)c(C)c(S(=O)(=O)N2CCSCC2)c(C)c1C
21,> 43.7 µg/mL,NC(=O)c1nc(-c2ccccc2)c(-c2ccccc2)[nH]c1=O
22,46.5 µg/mL,CCN(C(=S)NC(=O)c1ccco1)c1cccc2ccccc12
23,> 43.5 µg/mL,O=C(c1ccc(Cn2cc([N+](=O)[O-])cn2)o1)N1CCCC1
